Results as given in patent US6172112A, “Retinoids and use thereof” (priority 1999, dated 2001).
“Also recorded” adds a separate entry of the source. Like-named read-outs stand apart in the source and are kept apart here.

Columns and labels:
HL-60 cells = test: retinoid induction of differentiation of HL-60 cells (NBT); type: cell-based; conditions: Homo sapiens, HL-60, 96 h; 4-day induction of differentiation; read-out: ED50 (nM) HL-60
Description: (§1) Human leukemia cell line HL-60 and NB4 were used for measuring the ability of retinoids to induce terminal differentiation. Both cell lines are predominantly promyelocytes and are induced by retinoic acid to mature to cells with many characteristics of mature granulocytes. The induction of this differentiation is the basis for assaying one of the biological activities of retinoic acid analogues. For the differentiation assay, HL-60 or NB4 cells were grown in nutrient medium with fetal bovine serum as detailed by Breitman (15).
(§2) The percentage of cells that gained this marker was measured microscopically. The percentage of positive cells was then plotted as a function of the retinoid concentration to determine ED50 and ED30 values used in the formation of isoboles.

NB4 cells [1] = test: retinoid induction of differentiation of NB4 cells (NBT); type: cell-based, Human; conditions: for EC30: read-out: ED30 NB4 cell differentiation; for EC50: NB-4, 96 h, read-out: ED50 (nM) NB4
Description: NB4 cells were obtained from Dr. Waxman after he received them from Dr. M. Lanotte. […] The cell were grown at 37° C. in a humidified atmosphere of 5% CO2 in air. Cell density was estimated on an electronic particle counter (Coulter electronic, Hialeah, Fla.) and cell viability with trypan bleu dye exclusion.
as §1, §2

[2] = tested on: MNU-induced mammary cancers; test: efficacy on MNU-induced mammary cancers; type: in vivo, Sprague-Dawley rats; conditions: 200 mg/kg diet
NB4 cells [3] = test: retinoid metabolism in NB4 cells; type: in vitro ADME
in vivo toxicity = conditions: preliminary data
[4] = body weight in MNU mammary cancer study
JMML cells = test: inhibition of JMML spontaneous CFU-GM colony formation; conditions: Homo sapiens
Description: Mononuclear cells were separated by density gradient centrifugation, washed, and frozen in aliquots. […] No growth factors or other exogenous stimuli were added to the cultures. UAB retinoids and retinoic acid isomers were dissolved in either 100% ethanol or DMSO. Appropriate dilutions were made, and controls using the respective ethanol or DMSO concentration were set up in parallel. Varying doses of retinoids were added only once, 24 hours after initiation of the soft agar assays, by pipetting the retinoid solution on top of the soft agar and allowing the solution to enter the agar and interact with the cells by diffusion. The cultures were incubated for 14 days at 37° C. in a humidified atmosphere with 5% CO2.

NB4 cells [5] = conditions: alone; previously shown by Breitman and coworkers; cited from earlier work
chick skin CRABP = molecular target: T1, chick skin CRABP (Gallus gallus, UniProt A0A8V1AB82); test: chick skin CRABP radioligand binding assay; conditions: [3H]-(all-E)-RA radioligand
T1 sequence (A0A8V1AB82 88-225): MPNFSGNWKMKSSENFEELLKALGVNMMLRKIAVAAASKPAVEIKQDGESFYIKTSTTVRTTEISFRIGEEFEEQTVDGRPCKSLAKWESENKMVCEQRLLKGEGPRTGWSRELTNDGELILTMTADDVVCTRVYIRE

mouse skin papilloma [6] = conditions: 45.9 nmol dose
Description: The mouse skin antipapilloma assay measured the ED50 values for retinoid tumor inhibition on the dorsal skin of mice. The inhibition of mouse skin papilloma by retinoids was performed according to a modification of the procedure developed by Verma and Boutwell (14) as reported previously by Muccio et al. (8).
The UAB30 retinoids were evaluated next for their activity in preventing the chemical induction of papillomas on mouse skin (14).

mouse skin papilloma [7] = conditions: ref (8); cited from earlier work
[8] = tested on: acute promyelocytic leukemia (APL); conditions: patients with APL; cited from earlier work
RARα = molecular target: T2, RARα (Homo sapiens, UniProt P10276); conditions: CV-1 cells
T2 sequence (P10276 1-462): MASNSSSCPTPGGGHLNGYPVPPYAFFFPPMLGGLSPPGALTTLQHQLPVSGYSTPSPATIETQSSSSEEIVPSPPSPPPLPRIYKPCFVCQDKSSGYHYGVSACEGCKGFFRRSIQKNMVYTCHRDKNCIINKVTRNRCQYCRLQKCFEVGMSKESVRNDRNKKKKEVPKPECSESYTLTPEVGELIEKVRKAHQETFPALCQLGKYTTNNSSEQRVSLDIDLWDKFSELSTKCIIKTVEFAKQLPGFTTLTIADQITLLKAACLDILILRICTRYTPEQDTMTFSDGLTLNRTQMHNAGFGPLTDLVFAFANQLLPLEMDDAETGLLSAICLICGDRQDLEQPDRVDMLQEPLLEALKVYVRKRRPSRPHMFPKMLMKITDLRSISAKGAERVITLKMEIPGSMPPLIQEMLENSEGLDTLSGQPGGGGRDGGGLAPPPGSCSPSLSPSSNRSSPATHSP
Description: The antagonistic effects of UAB30 retinoids on the transcription of RARα were determined in CV-1 cells. The methods are nearly identical to those used to perform transcriptional assays. […] After 24 hours, cells were harvested and the transcriptional effects were measured relative CAT activity, after correction with β-gal activity for transfection efficiency. […] All experiments were performed in triplicate, and the data were averaged. […] These assays were performed in CV-1 cells with the RAR or RXR gene and the chloramphenicol acetyltransferase (CAT) reporter gene containing TREpal with a thymidine kinase promoter [(TREpal)2 -tk-CAT]. Twenty-four hours after transfection, cells were treated with a single dose of retinoid and the cell extracts were assayed for b-galactosidase and CAT activity. The antagonistic effects of UAB30 retinoids on the transcription of RAR-α were also determined in CV-1 cells. The methods are nearly identical to those used to perform transcriptional assays. These studies utilized the CAT reporter gene [(TREpal)2 -tk-CAT]. […] After 24 hours, cells were harvested and the transcriptional effects were measured in relative CAT activity, after correction with β-galactosidase activity for transfection efficiency. […] Experiments were performed in triplicate and the data were averaged.

[9] = read-out: normalized percent inhibition of CFU-GM colony growth, patient J83 (%)
[10] = read-out: normalized percent inhibition of CFU-GM colony growth, patient J84 (%)

## CC(=C/C=C/C(C)=C/C(=O)O)/C=C1\CCCc2ccccc21 [(9Z)-UAB30, (2E,4E,6E,8E)-8-(3',4'-Dihydro-1'(2'H)-naphthalen-1'-ylidene)3,7-dimethyl-2,4,6-octatrienoic acid]
HL-60 cells
  EC50: 8000 nM
NB4 cells [1]; Homo sapiens, NB-4, 72 h
  EC30: > 10000 µM
NB4 cells [1]; Homo sapiens
  EC50: 10000 nM
NB4 cells [1]; retinoid alone
  NB4 cell differentiation: no effect
[2]
  growth of MNU-induced mammary cancers: inhibited the growth of the MNU-induced mammary cancers
[2]; 26 days post MNU
  average mammary tumor weight/rat: 0.05 grams
[2]; 33 days post MNU
  average mammary tumor weight/rat: 0.05 grams
[2]; 40 days post MNU
  average mammary tumor weight/rat: 0.10 grams
[2]; 47 days post MNU
  average mammary tumor weight/rat: 0.30 grams
[2]; 54 days post MNU
  average mammary tumor weight/rat: 0.45 grams
[2]; 61 days post MNU
  average mammary tumor weight/rat: 0.55 grams
[2]; 68 days post MNU
  average mammary tumor weight/rat: 0.55 grams
[2]; 75 days post MNU
  average mammary tumor weight/rat: 0.55 grams
[2]; 82 days post MNU
  average mammary tumor weight/rat: 0.70 grams
[2]; 89 days post MNU
  average mammary tumor weight/rat: 0.90 grams
[2]; 96 days post MNU
  average mammary tumor weight/rat: 1.00 grams
[2]; 103 days post MNU
  average mammary tumor weight/rat: 1.35 grams
[2]; 110 days post MNU
  average mammary tumor weight/rat: 1.75 grams
[2]; 117 days post MNU
  average mammary tumor weight/rat: 2.00 grams
[2]; 124 days post MNU
  average mammary tumor weight/rat: 2.20 grams
[2]; 131 days post MNU
  average mammary tumor weight/rat: 2.35 grams
NB4 cells [3]
  metabolism / metabolic stability: metabolically stable for 5 days
In vivo toxicity
  toxicity: much less toxic than 9-cis-retinoic acid
[4]; 200 mg/kg diet
  overall body growth: no obvious effect
[4]; 43 days of age, 200 mg/kg diet from day 53
  average body weight/rat: 133 grams
[4]; 57 days of age, 200 mg/kg diet
  average body weight/rat: 158 grams
[4]; 64 days of age, 200 mg/kg diet
  average body weight/rat: 174 grams
[4]; 71 days of age, 200 mg/kg diet
  average body weight/rat: 188 grams
[4]; 78 days of age, 200 mg/kg diet
  average body weight/rat: 197 grams
[4]; 85 days of age, 200 mg/kg diet
  average body weight/rat: 203 grams
[4]; 92 days of age, 200 mg/kg diet
  average body weight/rat: 210 grams
[4]; 99 days of age, 200 mg/kg diet
  average body weight/rat: 211 grams
[4]; 106 days of age, 200 mg/kg diet
  average body weight/rat: 215 grams
[4]; 113 days of age, 200 mg/kg diet
  average body weight/rat: 216 grams
[4]; 120 days of age, 200 mg/kg diet
  average body weight/rat: 218 grams
[4]; 127 days of age, 200 mg/kg diet
  average body weight/rat: 223 grams
[4]; 134 days of age, 200 mg/kg diet
  average body weight/rat: 227 grams
[4]; 141 days of age, 200 mg/kg diet
  average body weight/rat: 236 grams
[4]; 149 days of age, 200 mg/kg diet
  average body weight/rat: 234 grams
[4]; 155 days of age, 200 mg/kg diet
  average body weight/rat: 236 grams
[4]; 162 days of age, 200 mg/kg diet
  average body weight/rat: 238 grams
[4]; 169 days of age, 200 mg/kg diet
  average body weight/rat: 242 grams
[4]; 176 days of age, 200 mg/kg diet
  average body weight/rat: 243 grams
[4]; 183 days of age, 200 mg/kg diet
  average body weight/rat: 244 grams
JMML cells; [9]
  inhibition at 0.1 µM: 76%
  inhibition at 1 µM: 79%
JMML cells; [10]
  inhibition at 0.01 µM: 3%
  inhibition at 0.1 µM: 44%
  inhibition at 1 µM: 39%

## CC1=C(/C=C/C(C)=C/C=C/C(C)=C/C(=O)Nc2ccc(O)cc2)C(C)(C)CCC1 [4-HPR, 4-hydroxyphenylretinamide]
NB4 cells [5]
  NB4 cell differentiation: does not induce NB4 cells to differentiate

## CC1=C(/C=C/C(C)=C/C=C/C(C)=C/C(=O)O)C(C)(C)CCC1 [(all-E)-RA, all-trans-retinoic acid, reference compound]
Chick skin CRABP
  IC50: 0.6 µM
HL-60 cells
  EC50: 120 nM
NB4 cells [1]; Homo sapiens, 4-day induction of differentiation
  EC50: 610 nM
NB4 cells [1]; in combination with 9-cis-UAB30 (1:10), day 3
  EC30: 0.05 µM
NB4 cells [1]; in combination with all-trans-UAB30 (1:10)
  EC30: 2.8 µM
NB4 cells [1]; retinoid alone, 3 days
  EC30: 0.81 µM
Mouse skin papilloma [6]
  prevention of papilloma (tumor) formation: 95%
Mouse skin papilloma [7]
  ED50 skin antipapilloma assay: 3.0 nmol
[8]
  complete remission rate: 90%
JMML cells; read-out: normalized percent inhibition of CFU-GM colony growth, patient J43 (%), 10^-7 M
  inhibition at 0.1 µM: 74%
JMML cells; read-out: normalized percent inhibition of CFU-GM colony growth, patient J83 (%), 10^-7 M
  inhibition at 0.1 µM: 88%
JMML cells; read-out: normalized percent inhibition of CFU-GM colony growth, patient J84 (%), 10^-8 M
  inhibition at 0.01 µM: 33%
JMML cells; read-out: percent inhibition of CFU-GM colony growth (not normalized), 10^-6 M, J43 patient cells
  inhibition at 1 µM: 85%
JMML cells; read-out: percent inhibition of CFU-GM colony growth (not normalized), 10^-6 M, J83 patient cells
  inhibition at 1 µM: 78%
JMML cells; read-out: percent inhibition of CFU-GM colony growth (not normalized), 10^-6 M, J84 patient cells
  inhibition at 1 µM: 61%

## CCCCCCCOc1cc2c(cc1/C(C)=C/c1ccc(C(=O)O)cc1)C(C)(C)CCS2(=O)=O [Ro-41-5253]
RARα
  antagonism of (all-E)-RA induced RARα transcription: two-fold more active; also recorded: exhibited antagonism at each concentration of (all-E)-RA
